Results on three substances are retold here after patent US20190160152A1 (OPKO BIOLOGICS LTD., priority 2016, published 2019).

Data set [1] in a line: IP glucose tolerance test (IPGTT model). Type of data set: in vivo, C57BL/6 male mice.
A short description of data set [2]: ob/ob mouse model Study 1: PEG30-S-MAL-FMS-OXM variants at 2000 nmol/kg. Type of data set: in vivo, male ob/ob mice. The note with it: 2000 nmol/kg sc, days 1, 5, 9, 13 and 16. As to the method:
Terminal samples on day 19 were analyzed for cholesterol.

Data set [3] is described as follows: ob/ob mouse model Study 3: MOD-6031 vs PEG30-Fmoc-OXM vs PEG30-EMCS-OXM. The data set is classed as in vivo, male ob/ob mice.
Procedure: Forty-two male ob/ob mice (7 weeks of age, Charles River, Italy) were acclimatized to the facility (10 days) followed by handling protocol whereby animals were handled as if to be dosed but were actually not weighed or dosed. Subsequently, animals underwent baseline period for 1 week in which each animal have been dosed twice by the subcutaneous route with PEG30-SH in volume of 20 ml/kg. Body weight, food and water intake were recorded daily, and samples were taken for non-fasting and fasting glucose measurements and non-fasting and fasting insulin measurements. Animals were subsequently allocated into three treatment, control and pair-fed groups (group A, N=10, groups B-E, N=8) based on plasma glucose, body weight and daily food and water intake. […] It was given the daily food ration equal to that eaten by its paired counterpart in group B the previous day. As such, animals in Group E will be one day out of phase with Group B in all study procedures and measurements. During the study, animals were dosed every four days (days: 1, 5, 9, 13, 17, 21, 25 and 29) as describes in table 3. […] Several procedures and sampling have been performed: non-fasting glucose on days 1, 6, 14, 22 and 29, fasting glucose on days 10, 18 and 26. On days 2 and 30 fasting glucose samples have been taken as part of an OGTT procedure, in which insulin was measured in parallel to glucose. Terminal samples on day 33 were analyzed for cholesterol, triglycerides and fructosamine.
The nature of data set [4]: Syringability analysis (Instron, glide force). Type of data set: physicochemical. Conditions: 25 Ga Needle; 9 in/min (16 sec). The protocol: Syringeability was tested using an Instron instrument, model 5942. […] […] For each needle size, two speed rates were measured: 4.8 in/min and 9 in/min, which correspond to injection speeds of 1 ml per 30 sec and 16 sec, respectively.
In one case, acceptance criteria for syringability was set at <10 N (glide force). The results of syringability for two different formulations of an acetate based buffer and using three different gauge needles is presented in Table 29 below.

Setting [5] is: blood glucose, 100 nmol/kg peptide content IP 15 min prior to glucose 1.5 gr/kg IP.
Where [6] appears, read: control PEG-SH, 100 nmol/kg peptide content IP.
Setting [7] is: 6000 nmol/kg sc every four days.
[8] abbreviates: 6000 nmol/kg, glucose 2 g/kg po.

Regarding “MOD-6030: heterogeneous mixture of PEG-S-MAL-FMS-OXM conjugate composed of three variants (N-terminal, Lys12 and Lys30) (HSQGTFTSDYSKYLDSRRAQDFVQWLMNTKRNRNNIA; Oxyntomodulin PEG30-S-MAL-FMS, mixed N-term/Lys12/Lys30; UniProt P01275 53-89, looked up)”, in data set [1] (setting [5]), the “AUC (0-180)” value is reported as 13541 and the “AUC (−60-180)” value worked out at 18200. Also, in data set [1] (setting [6]), the “% AUC from control, AUC (0-180)” value is listed as 60.1% and the “% AUC from control, AUC (−60-180)” value was 67.8%. The “final reduction of body weight (on day 18) compared to vehicle (PEG-SH) group” value in data set [2] amounted to 4.7%.

With “PEG30-Fmoc-OXM (HSQGTFTSDYSKYLDSRRAQDFVQWLMNTKRNRNNIA; Oxyntomodulin PEG30 via Fmoc linker; UniProt P01275 53-89, looked up)”, in data set [3] (setting [7]), the “Final reduction changes in body weight (on day 33) compared to control (PEG-SH)” value is listed as 5.1% and the “fasting glucose (in words)” value is “significant improvement”. Further, in data set [3] (6000 nmol/kg sc every four days, insignificant), the “reduction change in body weight compared to its pair-fed group” value is listed as 2.6%. Moreover, the “terminal plasma lipidic profiles and fructosamine (in words)” value in data set [3] (6000 nmol/kg, day 33) is recorded as “significant reduction”. Further, in data set [3] (setting [8]), the “glucose profile, Day 30 OGTT (in words)” value is on record as “significant improved glucose profile” and the “glucose tolerance, day 2 OGTT (in words)” value is given as “significantly improved glucose tolerance”.

With certolizumab pegol [Cimzia], in data set [4], the “Break Loose Force” value is 6.28 N and the “Glide Force” value was 27.94 N.
